Counter-ions that a name gives are not always drawn.
Experiments:
[1] = target: T1, MET (Homo sapiens, UniProt P08581); experiment: Test B: inhibition of the autophosphorylation of MET, ELISA technique (pppY1230, 1234, 1235) in MKN45 cells; type: cell-based; parameters: endogenous in cells; host or cells: MKN45 cells; conditions: 1 h treatment, phosphoMET ELISA
Procedure: B) Test B: Inhibition of the Autophosphorylation of Met; ELISA Technique (pppY1230, 1234, 1235) a) Cell lysates: MKN45 cells are seeded into 96-well plates (cell coat BD polylysine) at 20 000 cells/well in 200 μl of RPMI medium+10% FCS+1% L-glutamine. They are left to adhere for 24 hours in an incubator.
The cells are treated the day after seeding with the products at 6 concentrations, in duplicate, for 1 h. At least 3 control wells are treated with the same final amount of DMSO.
Product dilution: Stock at 10 mM in pure DMSO—range from 10 mM to 30 μM with an increment of 3 in pure DMSO—intermediate dilutions to 1/50 in culture medium and then removal of 10 μl added directly to the cells (200 μl): final range of 10 000 to 30 nM.
At the end of the incubation, the supernatant is carefully removed and rinsing is performed with 200 μl of PBS. Next, 100 μl of lysis buffer are placed directly in the wells on ice and incubated at 4° C. for 30 minutes. Lysis buffer: 10 mM Tris HCl, pH 7.4, 100 mM NaCl, 1 mM EDTA, 1 mM EGTA, 1% Triton X-100, 10% glycerol, 0.1% SDS, 0.5% deoxycholate, 20 mM NaF, 2 mM Na3VO4, 1 mM PMSF and cocktail of antiproteases.
The 100 μl of lysates are transferred into a V-bottomed polypropylene plate and the ELISA is performed immediately, or the plate is frozen at −80° C.
70 μl of kit dilution buffer+30 μL of cell lysate, or 30 μl of lysis buffer for the blanks, are added to each well of the kit plate. Incubation is carried out for 2 h with gentle agitation at ambient temperature.
The wells are rinsed 4 times with 400 μl of kit washing buffer. Incubation is carried out with 100 μl of anti-phospho MET antibody for 1 hour at ambient temperature.
The wells are rinsed 4 times with 400 μl of kit washing buffer. Incubation is carried out with 100 μl of anti-rabbit HRP antibody for 30 minutes at ambient temperature (except for the wells of chromogen alone).
The wells are rinsed 4 times with 400 μl of kit washing buffer. 100 μL of chromogen are introduced and incubation is carried out for 30 minutes in the dark at ambient temperature.
The reaction is stopped with 100 μl of stop solution. The plate is read without delay at […], 0.1 second on a Wallac Victor plate reader.
Target sequence in this assay (P08581 25-1390): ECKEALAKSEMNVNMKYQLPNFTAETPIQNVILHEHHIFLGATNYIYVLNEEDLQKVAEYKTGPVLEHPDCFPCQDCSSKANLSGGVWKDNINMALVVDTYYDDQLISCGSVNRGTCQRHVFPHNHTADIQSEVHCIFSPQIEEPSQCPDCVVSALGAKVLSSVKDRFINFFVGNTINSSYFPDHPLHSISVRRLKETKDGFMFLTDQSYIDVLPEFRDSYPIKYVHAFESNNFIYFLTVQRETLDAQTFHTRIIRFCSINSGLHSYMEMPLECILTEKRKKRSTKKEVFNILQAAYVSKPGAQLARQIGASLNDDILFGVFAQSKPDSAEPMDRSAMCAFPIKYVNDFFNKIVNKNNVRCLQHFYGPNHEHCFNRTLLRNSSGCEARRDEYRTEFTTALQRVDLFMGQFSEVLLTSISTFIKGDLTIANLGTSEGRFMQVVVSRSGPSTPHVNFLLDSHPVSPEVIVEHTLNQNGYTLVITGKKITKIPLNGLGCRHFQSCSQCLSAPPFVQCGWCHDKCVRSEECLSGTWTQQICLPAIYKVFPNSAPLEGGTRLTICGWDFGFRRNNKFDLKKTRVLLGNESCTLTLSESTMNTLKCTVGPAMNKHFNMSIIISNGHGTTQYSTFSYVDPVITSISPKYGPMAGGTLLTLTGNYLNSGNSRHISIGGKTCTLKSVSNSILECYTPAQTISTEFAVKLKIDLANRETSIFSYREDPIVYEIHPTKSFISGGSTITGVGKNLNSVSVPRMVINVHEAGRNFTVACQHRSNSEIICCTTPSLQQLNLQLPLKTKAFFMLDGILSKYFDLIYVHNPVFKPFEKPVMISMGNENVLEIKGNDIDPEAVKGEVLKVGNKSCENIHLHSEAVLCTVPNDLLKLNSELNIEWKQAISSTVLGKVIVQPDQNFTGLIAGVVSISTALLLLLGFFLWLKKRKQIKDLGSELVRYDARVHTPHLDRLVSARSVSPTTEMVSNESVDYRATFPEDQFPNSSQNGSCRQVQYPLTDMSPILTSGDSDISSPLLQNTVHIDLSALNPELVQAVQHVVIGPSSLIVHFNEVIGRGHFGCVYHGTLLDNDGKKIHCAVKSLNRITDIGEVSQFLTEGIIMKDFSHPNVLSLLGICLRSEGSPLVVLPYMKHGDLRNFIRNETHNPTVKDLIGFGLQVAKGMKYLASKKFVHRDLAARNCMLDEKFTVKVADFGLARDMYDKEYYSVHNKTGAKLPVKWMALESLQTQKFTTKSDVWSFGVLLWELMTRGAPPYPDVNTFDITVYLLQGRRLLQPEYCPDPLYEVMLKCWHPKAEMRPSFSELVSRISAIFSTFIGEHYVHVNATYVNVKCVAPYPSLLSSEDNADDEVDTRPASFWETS

[2] = target: T1, MET; experiment: Test A: HTRF MET assay in 96-well format; type: biochemical; parameters: The His-Tev-MET (956-1390) recombinant DNA in pFastBac (Invitrogen) is transfected into insect cells; His (N, cleaved yes); Tev cleavage site (N); made in house; host or cells: SF21 insect cells (baculovirus, pFastBac); conditions: MET 5 nM, 10 μM ATP
Procedure: The His-Tev-MET (956-1390) recombinant DNA in pFastBac (Invitrogen) is transfected into insect cells and, after several viral amplification steps, the final baculovirus stock is tested for the expression of the protein of interest.
After infection for 72 h at 27° C. with the recombinant virus, SF21 cell cultures are harvested by centrifugation and the cell pellets are stored at −80° C.
The cell pellets are resuspended in the lysis buffer (buffer A [50 mM HEPES, pH 7.5, 250 mM NaCl, 10% glycerol, 1 mM TECP]; +cocktail of protease inhibitors, Roche Diagnostics, without EDTA, ref 1873580), stirred at 4° C. until the mixture is homogeneous, and then lysed mechanically using a “Dounce” type apparatus.
After centrifugation, the lysis supernatant is incubated for 2 h at 4° C. with nickel chelate resin (His-Trap 6 Fast Flow™, GE HealthCare). After washing with 20 volumes of buffer A, the suspension is packed into a column, and the proteins are eluted with a gradient of buffer B (buffer A+290 mM imidazole).
The fractions containing the protein of interest, for the purpose of electrophoretic analysis (SDS PAGE), are combined, concentrated by ultrafiltration (10 kDa cut-off) and injected onto an exclusion chromatography column (Superdex® 200, GE HealthCare) equilibrated in buffer A.
After enzymatic cleavage of the histidine tag, the protein is reinjected onto a new IMAC nickel chelate chromatography column (His-Trap 6 Fast Flow™ GE HealthCare) equilibrated in buffer A. The fractions eluted with a gradient of buffer B and containing the protein of interest after electrophoresis (SDS PAGE) are finally combined and stored at −80° C.
For the production of autophosphorylated protein, the previous fractions are incubated for 1 h at ambient temperature after the addition of 2 mM ATP, 2 mM MgCl2 and 4 mM Na3VO4. After the reaction has been stopped with 5 mM of EDTA, the reaction mixture is injected onto a HiPrep desalifying column (GE HealthCare) pre-equilibrated in buffer A+4 mM Na3VO4, and the fractions containing the protein of interest (SDS PAGE analysis) are combined and stored at −80° C. The degree of phosphorylation is verified by mass spectrometry (LC-MS) and by peptide mapping.
MET at a final concentration of 5 nM is incubated in a final volume of 50 μl of enzymatic reaction in the presence of the test molecule (for a final concentration range of from 0.17 nM to 10 μM, 3% DMSO final concentration) in 10 mM MOPS buffer, pH 7.4, 1 mM DTT, 0.01% Tween 20. The reaction is initiated with the substrate solution to obtain final concentrations of 1 μg/ml poly-(GAT), 10 μM ATP and 5 mM MgCl2. After incubation for 10 min at ambient temperature, the reaction is stopped with a 30 μl mix so as to obtain a final solution of 50 mM Hepes, pH 7.5, 500 mM potassium fluoride, 0.1% BSA and 133 mM EDTA in the presence of 80 ng of streptavidin 61 SAXLB Cis-Bio Int. and 18 ng of anti-phosphotyrosine Mab PT66-Europium Cryptate per well. After incubation for 2 hours at ambient temperature, the reading is taken at 2 wavelengths, 620 nm and 665 nm, on a reader for the TRACE/HTRF technique, and the % inhibition is calculated from the 665/620 ratios.
Target sequence in this assay (P08581 956-1390): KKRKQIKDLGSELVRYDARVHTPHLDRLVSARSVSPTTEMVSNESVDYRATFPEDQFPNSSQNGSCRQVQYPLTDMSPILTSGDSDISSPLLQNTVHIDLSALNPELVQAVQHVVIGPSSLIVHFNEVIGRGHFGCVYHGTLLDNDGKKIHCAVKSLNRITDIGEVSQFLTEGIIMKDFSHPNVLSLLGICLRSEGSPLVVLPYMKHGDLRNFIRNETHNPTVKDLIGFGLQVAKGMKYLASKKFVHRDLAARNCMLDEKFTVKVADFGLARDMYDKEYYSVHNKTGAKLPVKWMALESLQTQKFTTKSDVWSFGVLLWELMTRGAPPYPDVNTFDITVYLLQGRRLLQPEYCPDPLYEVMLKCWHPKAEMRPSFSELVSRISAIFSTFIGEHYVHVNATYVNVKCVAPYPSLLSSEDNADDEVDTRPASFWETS

[3] = system: HCT116 cells and MKN45 cells; experiment: Test C: measurement of cell proliferation by 14C-thymidine pulse; type: cell-based; conditions: 14C-thymidine incorporation, 96 h of treatment; cell line not given
Procedure: The cells are seeded into Cytostar 96-well plates in 180 μl for 4 hours at 37° C. and 5% CO2: HCT116 cells in a proportion of 2500 cells per well in DMEM medium+10% foetal calf serum+1% L-glutamine, and MKN45 cells in a proportion of 7500 cells per well in RPMI medium+10% foetal calf serum+1% L-glutamine. After these 4 hours of incubation, the products are added in 10 μl as a […] concentrated solution according to the dilution method mentioned for the ELISA. The products are tested at 10 concentrations in duplicate from 10 000 nM to 0.3 nM with an increment of 3.
After treatment for 72 h, 10 μl of ^14C-thymidine at 10 μCi/ml are added so as to obtain 0.1 μCi per well. The ^14C-thymidine incorporation is measured on a Micro-Beta machine (Perkin-Elmer) after 24 hours of pulse and 96 h of treatment.
All the steps of the assay are automated on BIOMEK 2000 or TECAN stations.

Row | melting point | IC50 [1] | IC50 [2] | IC50 [3] | SMILES
1 | 230 °C | – | – | – | O=C(Nc1nc2ccc(Sc3cnc4ccc(-c5cnn(C6CCNCC6)c5)cn34)cc2s1)C1CC1 (as salt: hydrochloride) [Example 12, N-[6-({6-[1-(piperidin-4-yl)1H-pyrazol-4-yl]imidazo[1,2-a]pyridin-3-yl}sulphanyl)-1,3-benzothiazol-2-yl]cyclopropanecarboxamide]
2 | 258 °C | > 500 nM | < 100 nM | < 1000 nM | Nc1nc2ccc(Sc3cnc4ccc(-c5ccc(F)cc5)cn34)cc2s1 [Example 2, 6-{[6-(4-fluorophenyl)imidazo[1,2-a]pyridin-3-yl]sulphanyl}-1,3-benzothiazol-2-amine]
3 | 265 °C | < 100 nM | < 100 nM | < 1000 nM | O=C(Nc1nc2ccc(Sc3cnc4ccc(-c5ccc(F)cc5)cn34)cc2s1)C1CC1 [Example 3, N-(6-{[6-(4-fluorophenyl)imidazo[1,2-a]pyridin-3-yl]sulphanyl}-1,3-benzothiazol-2-yl)cyclopropanecarboxamide]
4 | – | < 100 nM | < 100 nM | < 1000 nM | CC(=O)Nc1nc2ccc(Sc3cnc4ccc(-c5ccc(F)cc5)cn34)cc2s1 [Example 4, N-(6-{[6-(4-fluorophenyl)imidazo[1,2-a]pyridin-3-yl]sulphanyl}-1,3-benzothiazol-2-yl)acetamide]
5 | > 260 °C | < 100 nM | < 100 nM | < 1000 nM | COCCNC(=O)Nc1nc2ccc(Sc3cnc4ccc(-c5ccc(F)cc5)cn34)cc2s1 [Example 5, 1-(6-{[6-(4-fluorophenyl)imidazo[1,2-a]pyridin-3-yl]sulphanyl}-1,3-benzothiazol-2-yl)-3-(2-methoxyethyl)urea]
6 | – | < 100 nM | < 100 nM | < 1000 nM | O=C(NCCN1CCOCC1)Nc1nc2ccc(Sc3cnc4ccc(-c5ccc(F)cc5)cn34)cc2s1 [Example 6, 1-(6-{[6-(4-fluorophenyl)imidazo[1,2-a]pyridin-3-yl]sulphanyl}-1,3-benzothiazol-2-yl)-3-[2-(morpholin-4-yl)ethyl]urea]
7 | – | < 100 nM | < 100 nM | < 1000 nM | Cn1cc(-c2ccc3ncc(Sc4ccc5nc(NC(=O)C6CC6)sc5c4)n3c2)cn1 [Example 7, N-(6-{[6-(1-methyl-1H-pyrazol-4-yl)imidazo[1,2-a]pyridin-3-yl]sulphanyl}-1,3-benzothiazol-2-yl)cyclopropanecarboxamide]
8 | – | < 100 nM | < 100 nM | < 1000 nM | O=C(Nc1nc2ccc(Sc3cnc4ccc(-c5cn[nH]c5)cn34)cc2s1)C1CC1 [Example 8, N-(6-{[6-(1H-pyrazol-4-yl)imidazo[1,2-a]pyridin-3-yl]sulphanyl}-1,3-benzothiazol-2-yl)cyclopropanecarboxamide]
9 | > 260 °C | < 100 nM | < 100 nM | < 1000 nM | O=C(Nc1nc2ccc(Sc3cnc4ccc(-c5cccc(F)c5)cn34)cc2s1)C1CC1 [Example 9, N-(6-{[6-(3-fluorophenyl)imidazo[1,2-a]pyridin-3-yl]sulphanyl}-1,3-benzothiazol-2-yl)cyclopropanecarboxamide]
10 | > 260 °C | < 100 nM | < 100 nM | < 1000 nM | Cc1ccc(-c2ccc3ncc(Sc4ccc5nc(NC(=O)C6CC6)sc5c4)n3c2)cc1F [Example 10, N-(6-{[6-((3-fluoro-4-methyl)phenyl)imidazo[1,2-a]pyridin-3-yl]sulphanyl}-1,3-benzothiazol-2-yl)cyclopropanecarboxamide]
11 | 247 °C | < 100 nM | < 100 nM | < 1000 nM | CC(C)(C)OC(=O)N1CCC(n2cc(-c3ccc4ncc(Sc5ccc6nc(NC(=O)C7CC7)sc6c5)n4c3)cn2)CC1 [Example 11, tert-butyl 4-{4-[3-({2-[(cyclopropylcarbonyl)amino]-1,3-benzothiazol-6-yl}sulphanyl)imidazo[1,2-a]pyridin-6-yl]-1H-pyrazol-1-yl}piperidine-1-carboxylate]
12 | – | < 100 nM | < 100 nM | < 1000 nM | O=C(Nc1nc2ccc(Sc3cnc4ccc(-c5cnn(C6CCNCC6)c5)cn34)cc2s1)C1CC1 [Example 12, N-[6-({6-[1-(piperidin-4-yl)1H-pyrazol-4-yl]imidazo[1,2-a]pyridin-3-yl}sulphanyl)-1,3-benzothiazol-2-yl]cyclopropanecarboxamide]

Row | SMILES | melting point | IC50 [1] | IC50 [2] | IC50 [3]
13 | O=C(Nc1nc2ccc(Sc3cnc4ccccn34)cc2s1)C1CC1 [Example 1, N-{[6-(imidazo[1,2-a]pyridin-3-yl)sulphanyl]-1,3-benzothiazol-2-yl}cyclopropanecarboxamide] | – | < 100 nM | < 100 nM | < 1000 nM

Source: patent US20110257171A1, “NOVEL IMIDAZO[1,2-A]PYRIDINE DERIVATIVES, METHOD FOR THE PREPARATION THEREOF, USE THEREOF AS MEDICAMENTS, PHARMACEUTICAL COMPOSITIONS AND NOVEL USE IN PARTICULAR AS MET INHIBITORS” (SANOFI-AVENTIS, priority 2008, published 2011)
